From PubChem BioAssay (NCI)
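Five compound concentrations were applied to cells in 96-well plates for 48 hours; endpoints were derived by simple linear interpolation of the resulting dose-response curve. GI50: concentration for 50% inhibition of growth. TGI denotes the concentration required for complete inhibition of growth.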

Columns and labels:
Assay in all cases: NCI tumour cell line growth inhibition, 48 h; in the data active = GI50 below about 0.43 µM; inactive = the rest
[1] = test system: OVCAR-4 ovarian
[2] = test system: KM12 colon
[3] = test system: HCT-15 colon
[4] = test system: HCT-116 colon
[5] = test system: SF-539 CNS
[6] = test system: NCI-H460 lung
[7] = test system: RPMI-8226 leukemia
[8] = test system: A549 NSCLC
[9] = test system: UACC-62 melanoma
[10] = test system: RXF 393 renal

CCCN(CCC)c1c([N+](=O)[O-])cc(C(=O)N(CCO)CCO)cc1[N+](=O)[O-]
> 100 µM: TGI [1] | TGI [2] | TGI [3] | TGI [4] | TGI [5] | TGI [6] | TGI [7] | TGI [8]

COc1cccc2c1C(=O)OC2c1cccc2ccccc12 (stereo unspecified)
> 88.7 µM: TGI [1]
> 100 µM: TGI [2] | TGI [3] | TGI [4] | TGI [9] | TGI [5] | TGI [6] | TGI [7] | TGI [8]
98.6 µM: TGI [10]

S=C=NCCc1ccccc1
6.33 µM: TGI [1]
0.765 µM: TGI [6]
2.04 µM: TGI [7]
2.52 µM: TGI [9]
0.532 µM: TGI [5]
1.42 µM: TGI [10]
1.48 µM: TGI [2]
6.38 µM: TGI [8]
1.12 µM: TGI [3]
1.74 µM: TGI [4]

CC(C)(C)OC(=O)c1cccnc1/C=N/O
> 100 µM: TGI [1] | TGI [2] | TGI [3] | TGI [4] | TGI [9] | TGI [5] | TGI [6] | TGI [8] | TGI [10]

N#Cc1c(N)nc(NCc2ccccc2)c(C#N)c1-c1ccc(Cl)cc1Cl
99.3 µM: TGI [1]
inactive: GI50 [1] 24.7 µM | GI50 [2] > 84.5 µM | GI50 [3] > 100 µM | GI50 [4] > 100 µM | GI50 [9] > 100 µM | GI50 [5] > 100 µM | GI50 [6] > 69.4 µM | GI50 [7] 33.5 µM | GI50 [8] > 100 µM | GI50 [10] 52.4 µM
> 100 µM: TGI [2] | TGI [3] | TGI [4] | TGI [9] | TGI [5] | TGI [6] | TGI [7] | TGI [8] | TGI [10]

COC1OC(C)C2OC(C)(C)OC2C1OC(C)=O (stereo unspecified)
> 100 µM: TGI [1] | TGI [2] | TGI [3] | TGI [4] | TGI [9] | TGI [5] | TGI [6] | TGI [7] | TGI [8] | TGI [10]

COc1ccc(N(/C=C/C(=O)C(F)(F)F)CC(=O)c2ccc(Cl)cc2)cc1
32.8 µM: TGI [2] | TGI [6]
48.5 µM: TGI [10]
49.1 µM: TGI [1]
26.6 µM: TGI [4]
44.7 µM: TGI [7]
20.7 µM: TGI [9]
26.8 µM: TGI [3]
87.8 µM: TGI [8]
37 µM: TGI [5]
inactive: GI50 [1] 18 µM | GI50 [2] 11.7 µM | GI50 [3] 13 µM | GI50 [4] 7.62 µM | GI50 [9] 8.34 µM | GI50 [5] 18.2 µM | GI50 [6] 13.4 µM | GI50 [7] 13.4 µM | GI50 [8] 29.6 µM | GI50 [10] 16.3 µM

O=c1[nH]c(=O)n(C2OC(CO)C(O)C2O)cc1OCC(F)(F)F (stereo unspecified)
> 100 µM: TGI [1] | TGI [2] | TGI [3] | TGI [4] | TGI [9] | TGI [5] | TGI [6] | TGI [7] | TGI [8] | TGI [10]

COc1ccc(C(=O)N/N=C/c2c(C)n(C)n(-c3ccccc3)c2=O)cc1
> 100 µM: TGI [1] | TGI [2] | TGI [3] | TGI [4] | TGI [9] | TGI [5] | TGI [6] | TGI [7] | TGI [8] | TGI [10]

CC(=O)OC1CC[C@@]2(C)C(CC[C@]3(C)C2CC=C2[C@@H]4C(C)[C@H](C)CCC4(C)CCC23C)[C@@]1(C)C(=O)O (stereo partly specified)
35.3 µM: TGI [9]
45.6 µM: TGI [8]
53.9 µM: TGI [2]
51.8 µM: TGI [5]
66.7 µM: TGI [1]
71.6 µM: TGI [6]
64.8 µM: TGI [7]
43.2 µM: TGI [3]
49.4 µM: TGI [10]
30.8 µM: TGI [4]

C#COc1cccc(Nc2ncnc3cc(NC(=O)[C@H](C)Cl)ccc23)c1
inactive: GI50 [2] 2.44 µM | GI50 [3] 2.5 µM | GI50 [4] 2.23 µM | GI50 [9] 2.96 µM | GI50 [5] 2.85 µM | GI50 [6] 2.18 µM | GI50 [7] 3.52 µM | GI50 [8] 3.18 µM | GI50 [10] 3.34 µM
> 62.5 µM: TGI [2] | TGI [3] | TGI [4] | TGI [9] | TGI [5] | TGI [6] | TGI [7] | TGI [8]
39.3 µM: TGI [10]

COC(=O)/C=c1\s/c(=C\C(=O)OC)c2ccccc12
> 100 µM: TGI [1] | TGI [2] | TGI [3] | TGI [4] | TGI [9] | TGI [5] | TGI [7] | TGI [8] | TGI [10]

CSCCCNC(=O)c1csc(-c2csc(CCNC(=O)CNC(=O)CNC(=O)OC(C)(C)C)n2)n1
> 100 µM: TGI [1] | TGI [2] | TGI [3] | TGI [4] | TGI [9] | TGI [5] | TGI [6] | TGI [8] | TGI [10]

CCCCCCCCCCCCCC(=O)CSCCNC(=O)CCNC(=O)[C@@H](O)C(C)(C)COP(=O)(O)OP(=O)(O)OCC1OC(n2cnc3c(N)ncnc32)C(O)C1OP(=O)(O)O (stereo partly specified)
39 µM: TGI [2]
29.8 µM: TGI [5]
42.3 µM: TGI [10]
45.9 µM: TGI [8]
79.7 µM: TGI [6]
22.3 µM: TGI [1]
30.1 µM: TGI [4]
29.5 µM: TGI [9]
42.7 µM: TGI [3]

C/C=C/COC(=O)CO[N+](=O)[O-]
> 100 µM: TGI [1] | TGI [2] | TGI [3] | TGI [4] | TGI [5] | TGI [6] | TGI [7] | TGI [8] | TGI [10]

O=c1[nH]c(=O)n(C2CC(O)C(CO)O2)cc1C#Cc1ccc(F)cc1 (stereo unspecified)
> 100 µM: TGI [1] | TGI [2] | TGI [3] | TGI [9] | TGI [5] | TGI [6] | TGI [7] | TGI [8]

Cc1ccc(C)c(NC(=O)CC2SC(=Nc3ccccc3Cl)NC2=O)c1 (stereo unspecified)
> 100 µM: TGI [1] | TGI [2] | TGI [3] | TGI [4] | TGI [9] | TGI [5] | TGI [6] | TGI [8] | TGI [10]

COc1ccc(/C=C\c2cc(OC)c(OC)c(OC)c2)cc1OCC(=O)Nc1ccc2nc(C)sc2c1
9.18 µM: TGI [1]
inactive: GI50 [1] 2.64 µM | GI50 [2] 3.79 µM | GI50 [3] 2.8 µM | GI50 [4] 3.57 µM | GI50 [9] 2.19 µM | GI50 [5] 2.56 µM | GI50 [6] 3.36 µM | GI50 [7] 1.98 µM | GI50 [10] 5.06 µM
14.8 µM: TGI [2]
10.4 µM: TGI [3]
33.2 µM: TGI [6]
5.16 µM: TGI [9]
> 100 µM: TGI [4] | TGI [10]
4.69 µM: TGI [7]
14.6 µM: TGI [5]
